In ChEMBL document CHEMBL6127119 (J Med Chem, 2024):
Values after ≈ are worked out from the molar mass of the structure shown.

Tests used:
[1] = system: Acinetobacter baumannii; test: Antibacterial activity against Carbapenem-resistant Acinetobacter baumannii clinical isolate incubated for 16 to 24 hrs by CLSI based broth microdilution method; type: functional; conditions: time 16-24 hrs
[2] = system: Pseudomonas aeruginosa; test: Antibacterial activity against Pseudomonas aeruginosa PAO1 incubated for 16 to 24 hrs by CLSI based broth microdilution method; type: functional; conditions: time 16-24 hrs
[3] = system: Klebsiella pneumoniae; test: Antibacterial activity against Klebsiella pneumoniae clinical isolate incubated for 16 to 24 hrs by CLSI based broth microdilution method; type: functional; conditions: time 16-24 hrs
[4] = system: Enterococcus faecium; test: Antibacterial activity against vancomycin-resistant Enterococcus faecium harboring VanA phenotype incubated for 16 to 24 hrs by CLSI based broth microdilution method; type: functional; conditions: time 16-24 hrs
[5] = system: Enterococcus faecium; test: Antibacterial activity against vancomycin-resistant Enterococcus faecium harboring VanB phenotype incubated for 16 to 24 hrs by CLSI based broth microdilution method; type: functional; conditions: time 16-24 hrs
[6] = system: Escherichia coli; test: Antibacterial activity against Escherichia coli AB1157 incubated for 16 to 24 hrs by CLSI based broth microdilution method; type: functional; conditions: time 16-24 hrs
[7] = system: Staphylococcus aureus; test: Induction of drug resistance in vancomycin-sensitive Staphylococcus aureus MRSA252 assessed as fold increase in MIC measured after 16 days of serial passages by broth microdilution method; type: functional; conditions: time 16 day
[8] = system: Enterococcus faecium; test: Antibacterial activity against vancomycin-resistant Enterococcus faecium harboring VanM phenotype incubated for 16 to 24 hrs by CLSI based broth microdilution method; type: functional; conditions: time 16-24 hrs
[9] = system: Staphylococcus aureus; test: Antibacterial activity against vancomycin-intermediate Staphylococcus aureus incubated for 16 to 24 hrs by CLSI based broth microdilution method; type: functional; conditions: time 16-24 hrs
[10] = system: Staphylococcus aureus; test: Antibacterial activity against methicillin-susceptible Staphylococcus aureus incubated for 16 to 24 hrs by CLSI based broth microdilution method; type: functional; conditions: time 16-24 hrs
[11] = system: Acinetobacter baumannii; test: Potency index, ratio of Vancomycin MIC to test compound MIC for Carbapenem-resistant Acinetobacter baumannii clinical isolate incubated for 16 to 24 hrs by CLSI based broth microdilution method; type: functional; conditions: time 16-24 hrs
[12] = system: Staphylococcus aureus; test: Potency index, ratio of Norvancomycin MIC to test compound MIC for vancomycin-intermediate Staphylococcus aureus incubated for 16 to 24 hrs by CLSI based broth microdilution method; type: functional; conditions: time 16-24 hrs
[13] = system: Enterococcus faecium; test: Potency index, ratio of Vancomycin MIC to test compound MIC for vancomycin-resistant Enterococcus faecium incubated for 16 to 24 hrs by CLSI based broth microdilution method; type: functional; conditions: time 16-24 hrs
[14] = system: Staphylococcus aureus; test: Potency index, ratio of Vancomycin MIC to test compound MIC for vancomycin-intermediate Staphylococcus aureus incubated for 16 to 24 hrs by CLSI based broth microdilution method; type: functional; conditions: time 16-24 hrs
[15] = system: Escherichia coli; test: Potency index, ratio of Vancomycin MIC to test compound MIC for Escherichia coli […] incubated for 16 to 24 hrs by CLSI based broth microdilution method; type: functional; conditions: time 16-24 hrs
[16] = system: Enterococcus faecium; test: Potency index, ratio of Norvancomycin MIC to test compound MIC for vancomycin-resistant Enterococcus faecium incubated for 16 to 24 hrs by CLSI based broth microdilution method; type: functional; conditions: time 16-24 hrs
[17] = system: Escherichia coli; test: Potency index, ratio of Norvancomycin MIC to test compound MIC for Escherichia coli […] incubated for 16 to 24 hrs by CLSI based broth microdilution method; type: functional; conditions: time 16-24 hrs
[18] = system: Acinetobacter baumannii; test: Potency index, ratio of Norvancomycin MIC to test compound MIC for Carbapenem-resistant Acinetobacter baumannii clinical isolate incubated for 16 to 24 hrs by CLSI based broth microdilution method; type: functional; conditions: time 16-24 hrs
[19] = system: HEK-293T; test: Cytotoxicity against HEK293T cells upto […] incubated for 72 hrs by MTT assay; type: toxicity, cell-based; conditions: human
[20] = system: HEK-293T; test: Cytotoxicity against HEK293T cells at 100 ug/ml incubated for 72 hrs by MTT assay; type: toxicity, cell-based; conditions: human, dose 100 µg/ml
[21] = system: Staphylococcus aureus; test: Antibacterial activity against methicillin-resistant Staphylococcus aureus clinical isolate incubated for 16 to 24 hrs by CLSI based broth microdilution method; type: functional; conditions: time 16-24 hrs
[22] = system: Enterococcus faecalis; test: Antibacterial activity against Enterococcus faecalis clinical isolate incubated for 16 to 24 hrs by CLSI based broth microdilution method; type: functional; conditions: time 16-24 hrs
[23] = system: Staphylococcus hominis; test: Antibacterial activity against methicillin-resistant Staphylococcus hominis clinical isolate incubated for 16 to 24 hrs by CLSI based broth microdilution method; type: functional; conditions: time 16-24 hrs
[24] = system: Staphylococcus haemolyticus; test: Antibacterial activity against methicillin-resistant Staphylococcus haemolyticus clinical isolate incubated for 16 to 24 hrs by CLSI based broth microdilution method; type: functional; conditions: time 16-24 hrs
[25] = system: Enterococcus faecium; test: Antibacterial activity against vancomycin-resistant Enterococcus faecium harboring VanA phenotype clinical isolate incubated for 16 to 24 hrs by CLSI based broth microdilution method; type: functional; conditions: time 16-24 hrs

CCCCCCCCCC(=O)N[C@@H](Cc1c[nH]c2ccccc12)C(=O)N[C@@H](CC(N)=O)C(=O)N[C@@H](CC(=O)O)C(=O)N[C@@H]1C(=O)NCC(=O)N[C@@H](CCCN)C(=O)N[C@@H](CC(=O)O)C(=O)N[C@H](C)C(=O)N[C@@H](CC(=O)O)C(=O)NCC(=O)N[C@H](CO)C(=O)N[C@@H]([C@@H](C)CC(=O)O)C(=O)N[C@@H](CC(=O)c2ccccc2N)C(=O)O[C@@H]1C
MIC [1]: 128 µg/mL (≈ 79 µM)
MIC [2]: > 128 µg/mL
MIC [3]: > 128 µg/mL
MIC [4]: 8 µg/mL (≈ 4.94 µM)
MIC [5]: 8 µg/mL (≈ 4.94 µM)
MIC [6]: 128 µg/mL (≈ 79 µM)
fold change (FC) [7]: 8
MIC [8]: 8 µg/mL (≈ 4.94 µM)
MIC [9]: 4 µg/mL (≈ 2.47 µM)
MIC [10]: 2 µg/mL (≈ 1.23 µM)

CC(C)C[C@@H](N)C(=O)N[C@H]1C(=O)N[C@@H](CC(N)=O)C(=O)N[C@H]2C(=O)N[C@H]3C(=O)N[C@H](C(=O)N[C@H](C(=O)NCc4ccc(-c5ccc(CCNC(=N)N)cc5)cc4)c4cc(O)cc(O)c4-c4cc3ccc4O)[C@H](O)c3ccc(c(Cl)c3)Oc3cc2cc(c3O[C@@H]2O[C@H](CO)[C@@H](O)[C@H](O)[C@H]2O[C@H]2C[C@](C)(N)[C@H](O)[C@H](C)O2)Oc2ccc(cc2Cl)[C@H]1O
MIC [1]: 64 µg/mL (≈ 38 µM)
MIC [2]: > 128 µg/mL
MIC [3]: > 128 µg/mL
MIC [4]: 4 µg/mL (≈ 2.37 µM)
Ratio [11]: 2
Ratio [12]: 2
MIC [5]: 4 µg/mL (≈ 2.37 µM)
MIC [6]: 8 µg/mL (≈ 4.75 µM)
Ratio [13]: 2
Ratio [14]: 2
Ratio [15]: 2
Ratio [16]: 2
Ratio [17]: 2
MIC [8]: 2 µg/mL (≈ 1.19 µM)
MIC [9]: 0.5 µg/mL (≈ 0.297 µM)
Ratio [18]: 2
MIC [10]: 0.125 µg/mL (≈ 0.0742 µM)

CN[C@H](CC(C)C)C(=O)N[C@H]1C(=O)N[C@@H](CC(N)=O)C(=O)N[C@H]2C(=O)N[C@H]3C(=O)N[C@H](C(=O)N[C@H](C(=O)NCCCCCCCCN)c4cc(O)cc(O)c4-c4cc3ccc4O)[C@H](O)c3ccc(c(Cl)c3)Oc3cc2cc(c3O[C@@H]2O[C@H](CO)[C@@H](O)[C@H](O)[C@H]2O[C@H]2C[C@](C)(N)[C@H](O)[C@H](C)O2)Oc2ccc(cc2Cl)[C@H]1O
MIC [1]: 128 µg/mL (≈ 81.2 µM)
MIC [2]: 128 µg/mL (≈ 81.2 µM)
MIC [3]: > 128 µg/mL
MIC [4]: 64 µg/mL (≈ 40.6 µM)
Activity [19]: Non-Toxic
MIC [5]: 16 µg/mL (≈ 10.2 µM)
MIC [6]: 64 µg/mL (≈ 40.6 µM)
Activity [20]: Non-Toxic
MIC [8]: 64 µg/mL (≈ 40.6 µM)
MIC [9]: 2 µg/mL (≈ 1.27 µM)
MIC [10]: 1 µg/mL (≈ 0.635 µM)

CN[C@H](CC(C)C)C(=O)N[C@H]1C(=O)N[C@@H](CC(N)=O)C(=O)N[C@H]2C(=O)N[C@H]3C(=O)N[C@H](C(=O)N[C@H](C(=O)O)c4cc(O)cc(O)c4-c4cc3ccc4O)[C@H](O)c3ccc(c(Cl)c3)Oc3cc2cc(c3O[C@@H]2O[C@H](CO)[C@@H](O)[C@H](O)[C@H]2O[C@H]2C[C@](C)(N)[C@H](O)[C@H](C)O2)Oc2ccc(cc2Cl)[C@H]1O [VANCOMYCIN]
MIC [21]: 0.25 µg/mL (≈ 0.173 µM)
MIC [22]: ≤ 0.03 µg/mL
MIC [23]: 1 µg/mL (≈ 0.69 µM)
MIC [24]: 1 µg/mL (≈ 0.69 µM)
MIC [25]: > 64 µg/mL

CC(C)C[C@@H](N)C(=O)N[C@H]1C(=O)N[C@@H](CC(N)=O)C(=O)N[C@H]2C(=O)N[C@H]3C(=O)N[C@H](C(=O)N[C@H](C(=O)NCc4ccc(-c5cccc(CNC(=N)N)c5)cc4)c4cc(O)cc(O)c4-c4cc3ccc4O)[C@H](O)c3ccc(c(Cl)c3)Oc3cc2cc(c3O[C@@H]2O[C@H](CO)[C@@H](O)[C@H](O)[C@H]2O[C@H]2C[C@](C)(N)[C@H](O)[C@H](C)O2)Oc2ccc(cc2Cl)[C@H]1O
MIC [1]: 64 µg/mL (≈ 38.3 µM)
MIC [2]: 128 µg/mL (≈ 76.6 µM)
MIC [3]: > 128 µg/mL
MIC [4]: 2 µg/mL (≈ 1.2 µM)
Ratio [11]: 2
Ratio [12]: 2
MIC [5]: 2 µg/mL (≈ 1.2 µM)
MIC [6]: 16 µg/mL (≈ 9.57 µM)
Ratio [13]: 2
Ratio [14]: 2
Ratio [15]: 2
Ratio [16]: 2
Ratio [17]: 2
MIC [8]: 1 µg/mL (≈ 0.598 µM)
MIC [9]: 0.25 µg/mL (≈ 0.15 µM)
Ratio [18]: 2
MIC [10]: ≤ 0.063 µg/mL
